Source: ChEMBL document CHEMBL1201862, “PubChem BioAssay data set” (2004)
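How tested: cells in 96-well plates exposed to compound for 48 hours at five concentrations. GI50: concentration for 50% inhibition of growth.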 Calls of active or inactive are those of the source. No stated cut-off is given here; in the data, active = GI50 up to about 1.1 µM and inactive = higher.

Legend:
Assay in all cases: NCI-60 cell line screen, 48 h
NCI/ADR-RES = tested on: NCI/ADR-RES
COLO 205 = tested on: COLO 205
NCI-H522 = tested on: NCI-H522
MDA-MB-435 = tested on: MDA-MB-435
SN12C = tested on: SN12C
PC-3 = tested on: PC-3
SK-MEL-2 = tested on: SK-MEL-2
A549 = tested on: A549
SF-295 = tested on: SF-295
LOX IMVI = tested on: LOX IMVI
HOP-62 = tested on: HOP-62
HCT-116 = tested on: HCT-116
OVCAR-8 = tested on: OVCAR-8
CAKI-1 = tested on: CAKI-1
ACHN = tested on: ACHN
CCRF-CEM = tested on: CCRF-CEM
SR = tested on: SR
BT-549 = tested on: BT-549
UO-31 = tested on: UO-31
Hs-578T = tested on: Hs-578T

| Structure (SMILES) | GI50 (NCI/ADR-RES) | GI50 (COLO 205) | GI50 (NCI-H522) | GI50 (MDA-MB-435) | GI50 (SN12C) | GI50 (PC-3) | GI50 (SK-MEL-2) | GI50 (A549) | GI50 (SF-295) | GI50 (LOX IMVI) | GI50 (HOP-62) | GI50 (HCT-116) | GI50 (OVCAR-8) | GI50 (CAKI-1) | GI50 (ACHN) | GI50 (CCRF-CEM) | GI50 (SR) | GI50 (BT-549) | GI50 (UO-31) | GI50 (Hs-578T) |
| --- | --- | --- | --- | --- | --- | --- | --- | --- | --- | --- | --- | --- | --- | --- | --- | --- | --- | --- | --- | --- |
| COC(=O)c1c(O)ccc2c1c1c(n2Cc2ccc(Cl)cc2Cl)C(=O)c2ccccc2C1=O | 10.7 µM (inactive) | 11.2 µM (inactive) | 7.46 µM (inactive) | 7.91 µM (inactive) | 2.21 µM (inactive) | 7.74 µM (inactive) | 14.2 µM (inactive) | 5.62 µM (inactive) | 11.8 µM (inactive) | 12.7 µM (inactive) | 9.18 µM (inactive) | 3.91 µM (inactive) | 8.99 µM (inactive) | 12.2 µM (inactive) | 7.85 µM (inactive) | 4.12 µM (inactive) | 3.44 µM (inactive) | 13.2 µM (inactive) | 10.5 µM (inactive) | 9.62 µM (inactive) |
| COc1ccc(/C(=N/N=c2[nH]c3ccccc3[nH]2)C(=O)O)cc1 | > 100 µM (inactive) | > 100 µM (inactive) | > 100 µM (inactive) | > 100 µM (inactive) | > 100 µM (inactive) | > 100 µM (inactive) | > 100 µM (inactive) | > 100 µM (inactive) | > 100 µM (inactive) | > 100 µM (inactive) | > 100 µM (inactive) | > 100 µM (inactive) | > 100 µM (inactive) | > 100 µM (inactive) | > 100 µM (inactive) | > 100 µM (inactive) | > 100 µM (inactive) | > 100 µM (inactive) | > 100 µM (inactive) | > 100 µM (inactive) |
| CC(=O)O[C@H]1C(=O)[C@@]2(C)[C@H]([C@H](OC(=O)c3ccccc3)[C@]3(O)C[C@H](OC(=O)[C@H](O)[C@@H](NC(=O)C(C)(O)C(C)O)c4ccccc4)C(C)=C1C3(C)C)[C@]1(OC(C)=O)CO[C@@H]1C[C@@H]2O (stereo not given in full) | > 50 µM (inactive) | 0.0933 µM (active) | 0.107 µM (active) | 0.0352 µM (active) | 0.485 µM (active) | 0.226 µM (active) | 0.124 µM (active) | 0.573 µM (active) | 3.72 µM (inactive) | 0.607 µM (active) | 0.282 µM (active) | 0.14 µM (active) | 1.42 µM (inactive) | 15.5 µM (inactive) | 14.4 µM (inactive) | 0.183 µM (active) | 0.133 µM (active) | 0.142 µM (active) | 27.6 µM (inactive) | 0.0964 µM (active) |
| COc1ccc(/N=C2\C(=O)C3=C(OC(C)(C)CC3)c3ccccc32)cc1 | 0.802 µM (active) | 2.93 µM (inactive) | 1.04 µM (active) | 0.264 µM (active) | 0.889 µM (active) | 1.29 µM (inactive) | 1.16 µM (inactive) | 0.946 µM (active) | 0.863 µM (active) | 0.481 µM (active) | 0.91 µM (active) | 0.499 µM (active) | 0.43 µM (active) | 0.991 µM (active) | 0.845 µM (active) | 1.48 µM (inactive) | 0.935 µM (active) | 1.1 µM (active) | 0.755 µM (active) | 1.63 µM (inactive) |
| NS(=O)(=O)c1ccc(/N=N/c2cnc(O)c(O)c2)cc1 | 94.2 µM (inactive) | 95.3 µM (inactive) | 14.1 µM (inactive) | > 100 µM (inactive) | 51.9 µM (inactive) | > 100 µM (inactive) | 52 µM (inactive) | > 100 µM (inactive) | > 100 µM (inactive) | 91.2 µM (inactive) | > 100 µM (inactive) | > 100 µM (inactive) | 76.2 µM (inactive) | > 100 µM (inactive) | > 100 µM (inactive) | 19.6 µM (inactive) | 29.6 µM (inactive) | 42.5 µM (inactive) | > 100 µM (inactive) | 66.1 µM (inactive) |
| CCN(CC)/[N+]([O-])=N/OCOC(C)=O | > 100 µM (inactive) | > 100 µM (inactive) | > 100 µM (inactive) | > 100 µM (inactive) | > 100 µM (inactive) | > 100 µM (inactive) | > 100 µM (inactive) | > 100 µM (inactive) | > 100 µM (inactive) | > 100 µM (inactive) | > 100 µM (inactive) | > 100 µM (inactive) | > 100 µM (inactive) | > 100 µM (inactive) | > 100 µM (inactive) | 94.4 µM (inactive) | 43.4 µM (inactive) | > 100 µM (inactive) | > 100 µM (inactive) | > 100 µM (inactive) |
